Laboratory results taken from PMC8713167, “New Insights into the Structure–Activity Relationship and Neuroprotective Profile of Benzodiazepinone Derivatives of Neurounina-1 as Modulators of the Na^+/Ca^2+ Exchanger Isoforms” (Journal of Medicinal Chemistry, 2021).

How the values were obtained:
NCX1 = target: T1, NCX1 (Canis lupus familiaris, UniProt P23685); experiment: High-throughput screening of NCX1 reverse mode, Fluo-4-loaded BHK-NCX1 cells, Na+-free pulse; type: cell-based, dog; settings: for Activity on NCX (SAR discussion, in words): NCX1/NCX3 reverse-mode screening; for Fluo-experiments on BHK-NCX1: NCX1 reverse mode, Na+-free, CTL (100), concentration not given (10 nM and 10 μM screened)
T1 construct: expressed in transfected cells; host or cells: BHK (baby hamster kidney) cells, stably transfected

NCX3 = target: T2, NCX3 (Rattus norvegicus, UniProt P70549); experiment: High-throughput screening of NCX3 reverse mode, Fluo-4-loaded BHK-NCX3 cells, Na+-free pulse; type: cell-based; settings: CTL (100), concentration not given (10 nM and 10 μM screened)
T2 construct: expressed in transfected cells; host or cells: BHK (baby hamster kidney) cells, stably transfected
T2 sequence (P70549 31-927): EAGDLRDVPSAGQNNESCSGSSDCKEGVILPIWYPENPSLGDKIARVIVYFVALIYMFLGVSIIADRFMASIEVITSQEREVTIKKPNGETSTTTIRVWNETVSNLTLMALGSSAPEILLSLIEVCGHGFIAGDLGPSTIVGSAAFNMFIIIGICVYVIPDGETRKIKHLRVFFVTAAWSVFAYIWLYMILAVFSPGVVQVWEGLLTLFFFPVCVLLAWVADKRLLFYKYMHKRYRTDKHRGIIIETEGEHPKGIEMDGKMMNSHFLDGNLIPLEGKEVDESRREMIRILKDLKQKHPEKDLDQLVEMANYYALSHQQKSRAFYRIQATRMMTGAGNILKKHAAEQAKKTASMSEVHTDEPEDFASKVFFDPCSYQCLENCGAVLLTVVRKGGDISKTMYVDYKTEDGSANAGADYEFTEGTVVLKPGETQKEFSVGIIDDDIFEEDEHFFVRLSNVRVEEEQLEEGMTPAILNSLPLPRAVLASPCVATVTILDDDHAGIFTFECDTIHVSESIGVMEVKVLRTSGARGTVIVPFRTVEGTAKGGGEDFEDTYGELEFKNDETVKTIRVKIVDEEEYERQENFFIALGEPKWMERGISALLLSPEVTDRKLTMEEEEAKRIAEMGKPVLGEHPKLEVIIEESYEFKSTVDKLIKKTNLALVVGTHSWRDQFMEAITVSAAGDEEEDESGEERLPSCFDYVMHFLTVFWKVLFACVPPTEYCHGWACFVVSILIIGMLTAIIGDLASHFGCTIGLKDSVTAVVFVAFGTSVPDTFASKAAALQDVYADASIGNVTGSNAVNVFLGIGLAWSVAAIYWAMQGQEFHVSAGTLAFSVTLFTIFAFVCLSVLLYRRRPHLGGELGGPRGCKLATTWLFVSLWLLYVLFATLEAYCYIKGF

Row | Structure (SMILES) | Activity on NCX (SAR discussion, in words) (NCX1) | Fluo-experiments on BHK-NCX1 (NCX1) | Fluo-experiments on BHK-NCX3 (NCX3) | melting point
1 | O=C1CN=C(c2ccccc2)c2cc(Cl)ccc2N1CN1CCCC1 [Compound 2, 7-Chloro-5-phenyl-1-(pyrrolidin-1-ylmethyl)-1H-benzo[e][1,4]diazepin-2(3H)-one] | inactivity | 100 | 100 | –
2 | O=C1CN=C(c2ccccc2)c2cc([N+](=O)[O-])ccc2N1CN1CCCCC1 [Compound 3, 7-Nitro-5-phenyl-1-(piperidin-1-ylmethyl)-1H-benzo[e][1,4]diazepin-2(3H)-one] | complete loss of activity | 100 | 100 | –
3 | O=C1CN=C(c2ccccc2)c2cc([N+](=O)[O-])ccc2N1CCN1CCCCC1 [Compound 5, 7-Nitro-5-phenyl-1-[2-(piperidin-1-yl)ethyl]-1H-benzo[e][1,4]diazepin-2(3H)-one] | inactive | 100 | 100 | –
4 | CC1CCCCN1CCN1C(=O)CN=C(c2ccccc2)c2cc([N+](=O)[O-])ccc21 (stereo not drawn) [Compound 6, 1-[2-(2-Methylpiperidin-1-yl)ethyl]-7-nitro-5-phenyl-1H-benzo[e][1,4]diazepin-2(3H)-one] | inactive | 100 | 100 | –
5 | CC1CCCN(CCN2C(=O)CN=C(c3ccccc3)c3cc([N+](=O)[O-])ccc32)C1 (stereo not drawn) [Compound 7, 1-[2-(3-Methylpiperidin-1-yl)ethyl]-7-nitro-5-phenyl-1H-benzo[e][1,4]diazepin-2(3H)-one] | inactive | 100 | 100 | –
6 | O=C1CN=C(c2ccccc2)c2cc([N+](=O)[O-])ccc2N1CCn1ccnc1 [Compound 8, 1-[2-(1H-Imidazole-1-yl)ethyl]-7-nitro-5-phenyl-1H-benzo[e][1,4]diazepin-2(3H)-one] | complete loss of activity | 100 | 100 | –
7 | Cc1nccn1CCN1C(=O)CN=C(c2ccccc2)c2cc([N+](=O)[O-])ccc21 [Compound 9, 1-[2-(2-Methyl-1H-imidazole-1-yl)ethyl]-7-nitro-5-phenyl-1H-benzo[e][1,4]diazepin-2(3H)-one] | – | 100 | 100 | –
8 | O=C1CN=C(c2ccccc2)c2cc([N+](=O)[O-])ccc2N1CCN1CCN(c2ccccc2)CC1 [Compound 10, 7-Nitro-5-phenyl-1-[2-(4-phenylpiperazin-1-yl)ethyl]-1H-benzo[e][1,4]diazepin-2(3H)-one] | – | 100 | 100 | –
9 | O=C1CN=C(c2ccccc2)c2cc([N+](=O)[O-])ccc2N1CCN1CCN(c2cccc3ccccc23)CC1 [Compound 11, 1-{2-[4-(Naphthalen-1-yl)piperazin-1-yl]ethyl}-7-nitro-5-phenyl-1H-benzo[e][1,4]diazepin-2(3H)-one] | – | 100 | 100 | –
10 | O=C(CN1C(=O)CN=C(c2ccccc2)c2cc([N+](=O)[O-])ccc21)N1CCCC1 [Compound 12, 7-Nitro-1-[2-Oxo-2-(pyrrolidin-1-yl)ethyl]-5-phenyl-1H-benzo[e][1,4]diazepin-2(3H)-one] | – | 100 | 100 | –
11 | O=C(CN1C(=O)CN=C(c2ccccc2)c2cc([N+](=O)[O-])ccc21)N1CCCCC1 [Compound 13, 7-Nitro-1-[2-Oxo-2-(piperidin-1-yl)ethyl]-5-phenyl-1H-benzo[e][1,4]diazepin-2(3H)-one] | – | 100 | 100 | –
12 | CC1CCCN(C(=O)CN2C(=O)CN=C(c3ccccc3)c3cc([N+](=O)[O-])ccc32)C1 (stereo not drawn) [Compound 15, 1-3-[(3-Methylpiperidin-1-yl)-2-oxoethyl]-7-nitro-5-phenyl-1H-benzo[e][1,4]-diazepin-2(3H)-one] | – | 100 | 100 | –
13 | O=C1CN=C(c2ccccc2)c2cc([N+](=O)[O-])ccc2N1CC(=O)n1ccnc1 [Compound 16, 1-[2-(1H-Imidazole-1-yl)-2-oxoethyl]-7-nitro-5-phenyl-1H-benzo[e][1,4]diazepin-2(3H)-one] | – | 100 | 100 | 120 to 121 °C
14 | Cc1nccn1C(=O)CN1C(=O)CN=C(c2ccccc2)c2cc([N+](=O)[O-])ccc21 [Compound 17, 1-[2-(2-Methyl-1H-imidazole-1-yl)-2-oxoethyl]-7-nitro-5-phenyl-1H-benzo[e][1,4]diazepin-2(3H)-one] | – | 100 | 100 | –
15 | O=C(CN1C(=O)CN=C(c2ccccc2)c2cc([N+](=O)[O-])ccc21)N1CCN(c2ccccc2)CC1 [Compound 18, 7-Nitro-1-[2-Oxo-2-(4-phenylpiperazin-1-yl)ethyl]-5-phenyl-1H-benzo[e][1,4]diazepin-2(3H)-one] | – | 100 | 100 | –
16 | O=C(CN1C(=O)CN=C(c2ccccc2)c2cc([N+](=O)[O-])ccc21)N1CCN(c2cccc3ccccc23)CC1 [Compound 19, 1-{2-[4-(Naphthalen-1-yl)piperazin-1-yl]-2-oxoethyl}-7-nitro-5-phenyl-1H-benzo[e][1,4]-diazepin-2(3H)-one] | – | 100 | 100 | –
